Assay results published in publication PMC11943913, “Peptides from Harpadon nehereus Bone Ameliorate Sodium Palmitate-Induced HepG2 Lipotoxicity by Regulating Oxidative Stress and Lipid Metabolism” (Marine Drugs, 2025).

Columns and labels:
[1] = test system: Nrf2 pathway; conditions: ref [34]; cited from earlier work
Description: PANa triggers the buildup of reactive oxygen species (ROS) within cells, resulting in oxidative stress and subsequent cellular injury. Antioxidant enzymes are essential for alleviating oxidative stress.

[2] = test system: FASN and ACC1; conditions: ref [39]; cited from earlier work
Description: Lipid metabolism, including lipolysis, lipogenesis, and lipid transport, determines the lipid levels in the body. FASN and ACC are two significant lipid synthetases that play a key role in lipid accumulation. PANa primarily influences hepatic lipogenesis through the modulation of FASN and ACC1 expression. […] CPT1 and ATGL are closely linked to lipolysis and are crucial for regulating lipid levels. ...

[3] = test system: total cholesterol (TCHO); experiment: Total cholesterol (TCHO) level in HepG2; type: cell-based; conditions: 100 μM peptide 4 h, then 350 µM PANa 24 h, HepG2
Experimental: (§1) After incubation, cells were treated with 100 μM of peptides for 4 h. After removing the media, PANa was added for 24 h of incubation. The levels of catalase (CAT), superoxide dismutase (SOD), glutathione peroxidase (GSH-Px), malondialdehyde (MDA), triacylglycerol (TG), total cholesterol (TCHO), low-density lipoprotein cholesterol (LDL-C), and high-density lipoprotein cholesterol (HDL-C) in the supernatant were determined according to the kit instructions.

[4] = test system: Nrf2; experiment: Western blot Nrf2; type: cell-based; conditions: 100 μM peptide 4 h, then 350 µM PANa 24 h, HepG2, Western blot
Experimental: (§2) After treatment, cells were washed with pre-chilled PBS and lysed with ice-cold lysis buffer for 30 min. The supernatant was collected after centrifugation at 12,000× g for 10 min and stored at −80 °C. Protein concentration was determined using a BCA protein assay kit. Equal amounts of protein (20–40 µg) were subjected to 10% sodium dodecyl sulfate-polyacrylamide gel electrophoresis (SDS-PAGE) and transferred to PVDF membranes (Polyvinylidene Fluoride, Merck, Darmstadt, Germany). Non-specific binding sites were blocked with 5% bovine serum albumin (BSA) solution at room temperature for 1 h, followed by incubation with the primary antibody at 4 °C overnight. After washing with TBST (3 times, 10 min/time), the membrane was incubated with the secondary antibody at room temperature for 1 h. Following further washing with TBST (3 times, 10 min/time), antibody signals were detected using a Western blot development system. The dilution ratios for the internal reference protein, vascular endothelial injury-related proteins, and oxidative stress-related pathway proteins were prepared according to the manufacturer’s instructions.

[5] = test system: glutathione peroxidase (GSH-Px); experiment: Glutathione peroxidase (GSH-Px) activity in HepG2; type: cell-based; conditions: 100 μM peptide 4 h, then 350 µM PANa 24 h, HepG2
Experimental: as §1

[6] = test system: NQO1; experiment: Western blot NQO1; type: cell-based; conditions: 100 μM peptide 4 h, then 350 µM PANa 24 h, HepG2, Western blot
Experimental: as §2

[7] = test system: HepG2 cells; experiment: CCK-8 proliferation of HepG2 with peptide alone; type: cell-based; conditions: concentrations below 200 µM, 24 h, CCK-8, n = 3
Experimental: HepG2 cells were cultured in DMEM supplemented with penicillin at a concentration of 100 U/mL, streptomycin at 100 μg/mL, and fetal bovine serum at a volume ratio of 10% under conditions of 37 °C and 5% CO2. A total of 2 ×10^4 cells per well were seeded into a 96-well plate for overnight culture. The upper layer of medium was carefully aspirated, and 200 μL of different concentrations of oligopeptide solution (50 μM, 100 μM, 200 μM) prepared with cell complete medium was added to each well. Twenty-four hours later, the proliferation rate of the cells was measured according to the instructions of the CCK-8 kit, and the appropriate concentration of oligopeptide was screened out.

[8] = test system: HO-1; experiment: Western blot HO-1; type: cell-based; conditions: 100 μM peptide 4 h, then 350 µM PANa 24 h, HepG2, Western blot
Experimental: as §2

[9] = test system: low-density lipoprotein cholesterol (LDL-C); experiment: LDL-C level in HepG2; type: cell-based; conditions: 100 μM peptide 4 h, then 350 µM PANa 24 h, HepG2
Experimental: as §1

[10] = test system: fatty acid synthase (FASN); experiment: Western blot FASN; type: cell-based; conditions: 100 μM peptide 4 h, then 350 µM PANa 24 h, HepG2, Western blot
Experimental: as §2

[11] = test system: triacylglycerol (TG); experiment: Triacylglycerol (TG) level in HepG2; type: cell-based; conditions: 100 μM peptide 4 h, then 350 µM PANa 24 h, HepG2
Experimental: as §1

[12] = test system: phosphorylated ACC1 (p-ACC1); experiment: Western blot p-ACC1; type: cell-based; conditions: 100 μM peptide 4 h, then 350 µM PANa 24 h, HepG2, Western blot
Experimental: as §2

[13] = test system: superoxide dismutase (SOD); experiment: Superoxide dismutase (SOD) activity in HepG2; type: cell-based; conditions: 100 μM peptide 4 h, then 350 µM PANa 24 h
Experimental: as §1

[14] = test system: proteins associated with lipid metabolism; experiment: Western blot, proteins associated with lipid metabolism overall; type: cell-based; conditions: 100 μM peptide 4 h, then 350 µM PANa 24 h, HepG2, Western blot
Experimental: as §2

[15] = test system: high-density lipoprotein cholesterol (HDL-C); experiment: HDL-C level in HepG2; type: cell-based; conditions: 100 μM peptide 4 h, then 350 µM PANa 24 h, HepG2
Experimental: as §1

[16] = test system: pancreatic lipase; experiment: Pancreatic lipase activity inhibition; type: biochemical; conditions: compared with orlistat (positive control); 4-nitrophenyl palmitate substrate, lipase 1.2 mg/mL, peptide 100 μM, Tris-HCl pH 8.0, 37 °C, absorbance 405 nm, three parallel wells
Experimental: A working substrate solution consisting of 4-nitrophenyl palmitate dissolved in sodium acetate solution (containing 1% Triton-X 100, 100 mL, 5 mM, pH 5.0) was prepared. Enzyme powder was dissolved in Tris-HCl buffer (pH 8.0, 37 °C). This mixture was incubated at 4 °C for 2 h before centrifugation at 5000 r/min for 5 min, yielding the supernatant used to prepare a pancreatic lipase solution of 1.2 mg/mL. Orlistat at a concentration of 1 mg/mL in Tris-HCl buffer (pH 8.0; 37 °C) was prepared alongside DMSO to reach a concentration of 350 μg/mL peptide solution. The peptide solution of 100 μM was prepared with Tris-HCl buffer (pH = 8.0, 37 °C). The absorbance was measured at 405 nm, and the inhibition rate was measured in parallel with three holes due to the methodology of Franco et al..

[17] = test system: malondialdehyde (MDA); experiment: Malondialdehyde (MDA) level in HepG2; type: cell-based; conditions: 100 μM peptide 4 h, then 350 µM PANa 24 h, HepG2
Experimental: as §1

[18] = test system: HepG2 cells; experiment: Cell viability of PANa-induced HepG2 (CCK-8); type: cell-based; conditions: 100 μM peptide 4 h, then 350 µM PANa 24 h, **** p < 0.0001 vs PANa group
Experimental: A total of 2 × 10^4 cells/well were inoculated in 96-well plates for culture at 37 °C and 5% CO2. Following this period, the cells received treatment with 200 μL medium containing 100 μM LR-7, KA-8, or PG-7 for 4 h before adding 350 μM PANa to each well. After incubation for an additional 24 h, the cell proliferation rates were assessed using the CCK-8 assay protocols.

[19] = test system: catalase (CAT); experiment: Catalase (CAT) activity in HepG2; type: cell-based; conditions: 100 μM peptide 4 h, then 350 µM PANa 24 h, HepG2
Experimental: as §1

[20] = test system: HUVECs; conditions: earlier work, ref [21]; cited from earlier work
Description: Harpadon nehereus, a nutrient-rich marine species indigenous to the Indo-Pacific region, remains underexploited despite its significant collagen content (18–22% wet weight). Harpadon nehereus serves as an economical source that is rich in protein and trace elements. Its proteins and derived peptides offer numerous health benefits including immune enhancement, blood pressure reduction, cardiovascular protection, and inflammation mitigation. In prior research, we successfully isolated three novel peptides LALFVPR (LR-7), KLHDEEVA (KA-8), and PSRILYG (PG-7) from the enzymatic hydrol ... || Studies have confirmed that oxidative stress and lipid metabolism disorders are significant factors in the occurrence and development of hyperlipidemia Dietary intervention is a crucial auxiliary strategy for the management of hyperlipidemia. Collagen peptides have been extensively used as a nutritional intervention in the treatment of various diseases due to their notable antioxidant, anti-inflammatory, and hypolipidemic activities. […] Anoth ...

GSH-Px activity, reversal of PANa-induced reduction [5]	SOD activity, reversal of PANa-induced reduction [13]	inhibition of pancreatic lipase activity [16]	CAT activity, reversal of PANa-induced reduction [19]	Molecule	hepatic steatosis, oxidative stress, inflammatory cell infiltration and fibrosis via Nrf2 pathway [1]	expression levels of FASN and ACC1 / lipid accumulation [2]	TCHO, effect on PANa-induced increase [3]	Nrf2 protein level [4]	NQO1 protein level [6]	effect on apoptosis of HepG2 cells [7]	HO-1 protein level [8]	LDL-C, effect on PANa-induced increase [9]	FASN expression vs PANa group [10]	TG, effect on PANa-induced increase [11]	p-ACC1 level vs PANa group [12]	abnormal expression of proteins associated with lipid metabolism by PANa (FASN, ATGL, CPT1, p-AMPKα) [14]	HDL-C, effect on PANa-induced decrease [15]	MDA level [17]	cell viability of PANa-exposed HepG2 [18]	effect on angiotensin II-induced dysfunctions within HUVECs [20]
				COc1ccc([C@@H]2CC(=O)c3c(O)cc(O)cc3O2)cc1O [hesperetin]	reduce hepatic steatosis, alleviate oxidative stress, decrease inflammatory cell infiltration, and mitigate fibrosis through activation of the Nrf2 pathway															
				Oc1ccc2c(c1)OCO2 [sesamol (SEM), sesamol]		influence lipid accumulation by decreasing the expression levels of FASN and ACC1														
effectively reversed the reduction	effectively reversed the reduction	comparable results to orlistat	effectively reversed the reduction	KLHDEEVA [KA-8, peptide from Harpadon nehereus bone collagen enzymatic hydrolysates]			notably reversed the PANa-induced increases	significant increases in the levels	significant increases in the levels	no effect on the apoptosis of HepG2 cells	significant increases in the levels	notably reversed the PANa-induced increases	FASN expression decreased	notably reversed the PANa-induced increases	p-ACC1 levels increased significantly	significantly reversed	notably reversed	significantly decreased the MDA levels	notably enhanced the cell viability	
effectively reversed the reduction	effectively reversed the reduction	less effective than orlistat	effectively reversed the reduction	PSRILYG [PG-7, peptide from Harpadon nehereus bone collagen enzymatic hydrolysates]			notably reversed the PANa-induced increases	significant increases in the levels	significant increases in the levels	no effect on the apoptosis of HepG2 cells	significant increases in the levels	notably reversed the PANa-induced increases	FASN expression decreased	notably reversed the PANa-induced increases	p-ACC1 levels increased significantly	significantly reversed	notably reversed	significantly decreased the MDA levels	notably enhanced the cell viability	improve angiotensin II-induced dysfunctions within HUVECs
